Assay [1] has as its target T1, Microphthalmia-associated transcription factor (Homo sapiens, UniProt O75030).
T1 sequence (O75030 whole entry): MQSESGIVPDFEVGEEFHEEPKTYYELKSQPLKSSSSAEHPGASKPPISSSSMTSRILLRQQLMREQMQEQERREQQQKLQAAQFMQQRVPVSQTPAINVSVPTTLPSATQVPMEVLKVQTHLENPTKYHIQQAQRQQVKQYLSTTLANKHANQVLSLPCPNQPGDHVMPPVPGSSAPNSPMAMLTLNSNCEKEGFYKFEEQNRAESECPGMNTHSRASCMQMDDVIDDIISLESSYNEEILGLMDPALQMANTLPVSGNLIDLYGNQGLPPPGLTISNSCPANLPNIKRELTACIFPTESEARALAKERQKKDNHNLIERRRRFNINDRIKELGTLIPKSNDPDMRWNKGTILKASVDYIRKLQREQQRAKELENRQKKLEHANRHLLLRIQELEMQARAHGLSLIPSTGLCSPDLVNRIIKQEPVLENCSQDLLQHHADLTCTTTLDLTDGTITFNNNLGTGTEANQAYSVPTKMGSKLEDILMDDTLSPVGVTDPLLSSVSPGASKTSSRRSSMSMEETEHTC
Put plainly: reducers of TRPM1 reporter luminescence, concentration series – cell-based, SK-MEL-5, cherry-picked, set 3, MITF inhibitor project, dose response (AID 493073).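 Note: SK-MEL-5 melanoma cells with luciferase driven by the MITF target TRPM1 promoter.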 It counts as functional.

A further assay concerns INS1. In words: INS-1E survival protection against cytokine death – cell-based, luminescence, retest, dose response (AID 449756).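 Note: cell death triggered by IL-1 beta plus TNF-alpha plus IFN-gamma mixture; protective hits raise ATP signal compared with cytokine alone wells.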 It counts as functional. The following applies: Rattus norvegicus.
Assay [2] concerns the target T2, Fatty acid synthase (Homo sapiens, UniProt P49327). In words: inhibition of human FAS-TE enzyme activity – biochemical, endpoint fluorescence intensity, uHTS hits, dose response (AID 624327).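 Note: fluorescence from hydrolysis of an O-methyl fluorescein acyl ester substrate by the enzyme.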 It counts as functional.
For assay [3], the target named is T2, Fatty acid synthase. In words: inhibition of human FAS-TE enzyme activity – biochemical, kinetic fluorescence intensity, dose response (AID 624326).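 Note: rate of fluorescence rise from hydrolysis of a fluorogenic O-methyl fluorescein ester substrate.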 It counts as functional.
Assay [4] can be described thus: viability of uninfected HEp-2 cells – cell-based, HTS, cytotoxicity control for RSV inhibitor project, dose response (AID 2410). It counts as functional. The following applies: human respiratory syncytial virus.
Assay [5] concerns the target Glucose-6-phosphate 1-dehydrogenase (Homo sapiens, UniProt P11413). Put plainly: inhibition of Homo sapiens G6PD, dose series – biochemical, fluorescence, selectivity assay for P. falciparum G6PD inhibitor project, dose response (AID 504792). It counts as functional.
For assay [6], the target named is DNA dC->dU-editing enzyme APOBEC-3G (Homo sapiens, UniProt Q9HC16). Put plainly: Dose Response confirmation of small molecule APOBEC3G DNA Deaminase Inhibitors via a fluorescence-based single-stranded DNA deaminase assay. [Related pubchem assays (depositor defined):AID493012, AID493028]. The class given is functional.
Assay [7] is described as follows: cells. The class given is functional.
A further assay addresses Nonstructural protein 1 (Influenza A virus, UniProt Q194T2). The class given is functional, Influenza A virus (A/California/07/2009(H1N1)).
The target of a further assay is Paired box protein Pax-8 (Homo sapiens, UniProt Q06710). Put plainly: PAX8 transcriptional activity inhibition in RMG-I – RMG-I cells, luciferase, cherry-pick, dose response (AID 687027).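 Note: luciferase reporter driven by Pax8 target thyroperoxidase promoter measured by SteadyGlo luminescence.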 It counts as functional, cell-based.
A further assay concerns SN12K1. In words: cells. The following applies: Homo sapiens. The class given is functional.
A short description of assay [8]: cells. The class given is functional, cell-based.
The nature of assay [9]: cells. The class given is functional, cell-based. This is another data set of the same source.
The nature of assay [10]: THP-1 cell cytotoxicity, dose response, cytotoxicity control for non-replicating M. tuberculosis project (AID 489025). The class given is functional.
The nature of assay [11]: Vero E6 cell cytotoxicity, dose response, cytotoxicity control for non-replicating M. tuberculosis project, secondary assay (AID 492998). The class given is functional, VeroE6. The conditions noted are these: Vero C1008.
The nature of assay [12]: NIH-3T3 fibroblast cytotoxicity, dose response, cytotoxicity control, cell-based, fluorescence, Alamar Blue, secondary assay (AID 2327).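 Note: NIH-3T3 mouse fibroblasts cultured with fluconazole at 8 µg/mL.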 It counts as functional. In general terms: Resazurin is reduced to fluorescent resorufin, in cell work by metabolically active cells.
A short description of assay [13]: luciferase reporter signal suppression in cells – H4 neuroglioma cells, luminescence, dose response (AID 1990). The class given is functional, cell-based. For orientation: A reporter such as luciferase makes a cellular process visible.
Assay [14] is described as follows: Luminescence Cell-Based Dose Response HTS to Identify Inhibitors of 5'UTR Stem-Loop Driven Prion Protein mRNA Translation in H4 Neuroglioblastoma Cells. [Related pubchem assays: 1827 (Project Summary), 1813 (Primary HTS)]. The class given is functional.
The nature of assay [15]: alpha-synuclein stem-loop luciferase translation blockers – H4 neuroglioma cells, luminescence, confirmation (AID 1988). It counts as functional, cell-based.
Assay [16] can be described thus: fluconazole-exposed Candida albicans growth modulators – fluorescence, retest, confirmation (AID 2467). It counts as functional, cell-based.
A short description of assay [17]: Trypanosoma cruzi growth suppression in host cells – NIH3T3 host cells, beta-gal luminescence, confirmation (AID 2044).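 Note: intracellular parasites grown in NIH/3T3 mouse fibroblasts as host cells; luminescent beta-galactosidase reporter signal from transgenic T. cruzi replicating inside host cells; inhibitors lower the luminescence signal.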 The class given is functional, cell-based.
The nature of assay [18]: viability of PTEN-deleted HCT116 cells – cell-based, HCT116 PTEN knockout, dose response (AID 1047).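 Note: HCT116 colon tumor cells with PTEN knocked out; cells exposed to compound for 60 hours before readout; potency for loss of cell viability measured by luminescence.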 The class given is functional.
Assay [19] can be described thus: NIH3T3 cell viability loss – ATP luminescence, mouse fibroblasts, counter-screen, dose response (AID 2010).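 Note: cells exposed to compound for about 90 hours before reading.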 It counts as functional, cell-based.
Assay [20] in a line: viability of HCT116 lacking mutant beta-catenin – cell-based, human colon tumor, dose response (AID 1045).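 Note: HCT116 colon tumor cells with beta catenin knocked out; cells exposed to compound for 60 hours.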 It counts as functional.
Assay [21] deals with T3, Replicative DNA helicase DnaB (Mycobacterium tuberculosis, UniProt P9WMR3).
T3 sequence (P9WMR3 whole entry): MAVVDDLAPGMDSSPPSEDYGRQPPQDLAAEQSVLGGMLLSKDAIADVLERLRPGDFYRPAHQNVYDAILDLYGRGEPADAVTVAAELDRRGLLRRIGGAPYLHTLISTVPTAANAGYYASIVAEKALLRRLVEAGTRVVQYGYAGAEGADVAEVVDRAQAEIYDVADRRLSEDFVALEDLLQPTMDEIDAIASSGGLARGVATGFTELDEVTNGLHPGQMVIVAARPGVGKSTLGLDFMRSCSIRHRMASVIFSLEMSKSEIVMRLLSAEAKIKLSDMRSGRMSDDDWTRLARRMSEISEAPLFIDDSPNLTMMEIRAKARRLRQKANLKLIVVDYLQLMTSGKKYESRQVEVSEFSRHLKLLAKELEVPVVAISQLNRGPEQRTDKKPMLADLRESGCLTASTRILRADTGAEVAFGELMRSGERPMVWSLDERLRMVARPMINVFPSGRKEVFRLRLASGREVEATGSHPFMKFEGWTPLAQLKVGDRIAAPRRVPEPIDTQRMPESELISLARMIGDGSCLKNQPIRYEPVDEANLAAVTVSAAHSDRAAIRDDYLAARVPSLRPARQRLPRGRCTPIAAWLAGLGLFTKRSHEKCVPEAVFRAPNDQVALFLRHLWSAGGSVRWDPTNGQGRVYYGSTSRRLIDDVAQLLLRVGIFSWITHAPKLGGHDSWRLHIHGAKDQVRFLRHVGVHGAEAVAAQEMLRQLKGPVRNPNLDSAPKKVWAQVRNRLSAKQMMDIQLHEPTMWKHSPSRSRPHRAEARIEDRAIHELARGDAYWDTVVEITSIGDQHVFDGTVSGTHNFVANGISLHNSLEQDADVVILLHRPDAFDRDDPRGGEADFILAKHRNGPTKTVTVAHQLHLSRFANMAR
Put plainly: DnaB intein splicing inhibitors, dose response, biochemical, cell-free fluorescence (AID 449749). It counts as functional.

Another assay has as its target T4, Protein RecA (Mycobacterium tuberculosis, UniProt P9WHJ3).
T4 sequence (P9WHJ3 whole entry): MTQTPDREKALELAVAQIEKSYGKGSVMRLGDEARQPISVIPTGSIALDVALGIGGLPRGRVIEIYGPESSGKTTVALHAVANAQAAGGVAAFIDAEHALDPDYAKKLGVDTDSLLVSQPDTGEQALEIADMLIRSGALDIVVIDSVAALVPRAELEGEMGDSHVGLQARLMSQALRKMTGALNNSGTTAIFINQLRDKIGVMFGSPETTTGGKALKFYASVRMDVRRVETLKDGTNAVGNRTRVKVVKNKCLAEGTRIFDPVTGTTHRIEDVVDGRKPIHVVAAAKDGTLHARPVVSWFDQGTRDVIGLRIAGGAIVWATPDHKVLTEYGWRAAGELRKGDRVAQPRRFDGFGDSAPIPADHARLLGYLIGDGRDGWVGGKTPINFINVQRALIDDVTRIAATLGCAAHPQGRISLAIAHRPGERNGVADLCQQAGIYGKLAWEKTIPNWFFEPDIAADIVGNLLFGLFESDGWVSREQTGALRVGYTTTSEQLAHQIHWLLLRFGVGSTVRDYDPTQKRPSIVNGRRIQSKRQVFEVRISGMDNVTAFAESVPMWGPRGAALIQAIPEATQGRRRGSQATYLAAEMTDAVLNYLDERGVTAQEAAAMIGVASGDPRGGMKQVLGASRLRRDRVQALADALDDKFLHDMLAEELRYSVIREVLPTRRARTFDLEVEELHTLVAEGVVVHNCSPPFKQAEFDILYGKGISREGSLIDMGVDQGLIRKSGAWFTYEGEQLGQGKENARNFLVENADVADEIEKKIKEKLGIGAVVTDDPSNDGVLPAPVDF
In words: Fluorescence Cell-Free Homogeneous Dose Retest to Identify Inhibitors of RecA-Intein Splicing Activity. [Related pubchem assays (depositor defined):AID2097, AID2223, AID489010, AID492950]. It counts as functional.

Activity calls are given as the source filed them.

Data on 12 compounds can be found in ChEMBL document CHEMBL1201862, “PubChem BioAssay data set” (2004).

As usually defined, the AC50 is the midpoint of the concentration-response curve, whichever way the signal moves. A word on the IC50: it is the concentration that gives 50% inhibition. A word on the CC50: it is the concentration that lowers cell viability or growth by half. In general, GI50 refers to the concentration that inhibits growth by half. The term EC50 denotes the midpoint of the concentration-response curve.

T2 sequence (P49327 whole entry): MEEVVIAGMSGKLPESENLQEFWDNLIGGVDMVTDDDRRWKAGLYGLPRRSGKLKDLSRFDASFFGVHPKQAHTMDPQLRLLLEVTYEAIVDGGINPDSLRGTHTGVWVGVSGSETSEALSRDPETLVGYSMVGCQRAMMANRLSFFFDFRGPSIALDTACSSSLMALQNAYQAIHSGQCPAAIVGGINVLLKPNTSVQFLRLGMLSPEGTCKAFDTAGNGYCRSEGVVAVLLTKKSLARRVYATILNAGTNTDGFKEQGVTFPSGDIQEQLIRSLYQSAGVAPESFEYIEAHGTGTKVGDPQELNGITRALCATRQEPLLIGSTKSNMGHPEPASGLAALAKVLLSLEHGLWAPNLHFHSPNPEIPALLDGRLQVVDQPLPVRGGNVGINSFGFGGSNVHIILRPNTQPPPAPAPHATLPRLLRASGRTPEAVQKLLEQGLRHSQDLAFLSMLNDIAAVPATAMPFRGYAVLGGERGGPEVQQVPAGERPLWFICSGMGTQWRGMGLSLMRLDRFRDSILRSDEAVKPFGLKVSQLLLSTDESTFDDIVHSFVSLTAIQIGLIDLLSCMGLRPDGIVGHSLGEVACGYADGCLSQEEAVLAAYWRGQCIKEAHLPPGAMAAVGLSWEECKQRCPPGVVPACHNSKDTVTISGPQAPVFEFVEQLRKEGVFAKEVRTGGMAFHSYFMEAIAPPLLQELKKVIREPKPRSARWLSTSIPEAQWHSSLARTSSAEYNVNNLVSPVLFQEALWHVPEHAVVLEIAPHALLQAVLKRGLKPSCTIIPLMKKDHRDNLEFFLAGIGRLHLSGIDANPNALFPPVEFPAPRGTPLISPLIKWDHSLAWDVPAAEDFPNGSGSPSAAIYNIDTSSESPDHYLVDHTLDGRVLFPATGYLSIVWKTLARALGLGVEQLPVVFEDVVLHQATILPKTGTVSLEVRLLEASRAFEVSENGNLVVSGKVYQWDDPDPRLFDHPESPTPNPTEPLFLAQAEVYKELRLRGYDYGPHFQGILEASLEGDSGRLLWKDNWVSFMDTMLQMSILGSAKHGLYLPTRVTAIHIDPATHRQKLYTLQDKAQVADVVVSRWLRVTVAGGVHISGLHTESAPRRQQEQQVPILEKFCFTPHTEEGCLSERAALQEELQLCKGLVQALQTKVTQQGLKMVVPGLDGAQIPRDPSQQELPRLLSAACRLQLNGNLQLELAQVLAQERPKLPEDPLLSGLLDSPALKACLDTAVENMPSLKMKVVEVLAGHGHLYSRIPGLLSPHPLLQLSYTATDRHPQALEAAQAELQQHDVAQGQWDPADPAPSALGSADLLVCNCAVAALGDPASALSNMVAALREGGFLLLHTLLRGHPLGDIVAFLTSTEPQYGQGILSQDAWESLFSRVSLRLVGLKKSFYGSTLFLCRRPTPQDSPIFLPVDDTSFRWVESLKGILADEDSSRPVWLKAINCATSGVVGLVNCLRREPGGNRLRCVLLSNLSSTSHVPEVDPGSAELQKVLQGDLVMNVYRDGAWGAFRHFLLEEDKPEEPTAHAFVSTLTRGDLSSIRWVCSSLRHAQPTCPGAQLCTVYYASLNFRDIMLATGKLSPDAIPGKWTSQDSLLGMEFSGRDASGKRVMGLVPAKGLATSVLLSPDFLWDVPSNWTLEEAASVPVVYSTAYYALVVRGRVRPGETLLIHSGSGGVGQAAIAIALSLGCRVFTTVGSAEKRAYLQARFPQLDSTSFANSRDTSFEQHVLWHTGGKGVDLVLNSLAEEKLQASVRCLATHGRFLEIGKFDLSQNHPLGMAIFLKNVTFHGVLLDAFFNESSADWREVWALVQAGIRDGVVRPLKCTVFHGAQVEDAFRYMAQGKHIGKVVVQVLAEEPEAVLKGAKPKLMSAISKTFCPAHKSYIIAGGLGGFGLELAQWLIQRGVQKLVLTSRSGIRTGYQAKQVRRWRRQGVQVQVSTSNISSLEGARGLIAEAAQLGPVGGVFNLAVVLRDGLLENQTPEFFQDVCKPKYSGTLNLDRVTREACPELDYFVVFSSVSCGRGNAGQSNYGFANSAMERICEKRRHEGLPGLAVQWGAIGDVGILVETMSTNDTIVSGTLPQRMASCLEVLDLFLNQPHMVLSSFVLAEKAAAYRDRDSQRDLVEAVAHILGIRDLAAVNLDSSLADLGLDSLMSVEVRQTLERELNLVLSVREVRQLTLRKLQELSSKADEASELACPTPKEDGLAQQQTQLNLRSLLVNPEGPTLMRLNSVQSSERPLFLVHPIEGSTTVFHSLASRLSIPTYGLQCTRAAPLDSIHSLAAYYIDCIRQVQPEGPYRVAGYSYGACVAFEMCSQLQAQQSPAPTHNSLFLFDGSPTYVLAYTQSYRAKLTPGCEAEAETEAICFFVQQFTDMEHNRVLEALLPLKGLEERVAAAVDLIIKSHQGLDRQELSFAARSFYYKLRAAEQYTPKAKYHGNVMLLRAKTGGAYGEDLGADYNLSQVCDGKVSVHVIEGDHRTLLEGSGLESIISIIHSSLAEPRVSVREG
Chain of Glucose-6-phosphate 1-dehydrogenase (P11413 whole entry): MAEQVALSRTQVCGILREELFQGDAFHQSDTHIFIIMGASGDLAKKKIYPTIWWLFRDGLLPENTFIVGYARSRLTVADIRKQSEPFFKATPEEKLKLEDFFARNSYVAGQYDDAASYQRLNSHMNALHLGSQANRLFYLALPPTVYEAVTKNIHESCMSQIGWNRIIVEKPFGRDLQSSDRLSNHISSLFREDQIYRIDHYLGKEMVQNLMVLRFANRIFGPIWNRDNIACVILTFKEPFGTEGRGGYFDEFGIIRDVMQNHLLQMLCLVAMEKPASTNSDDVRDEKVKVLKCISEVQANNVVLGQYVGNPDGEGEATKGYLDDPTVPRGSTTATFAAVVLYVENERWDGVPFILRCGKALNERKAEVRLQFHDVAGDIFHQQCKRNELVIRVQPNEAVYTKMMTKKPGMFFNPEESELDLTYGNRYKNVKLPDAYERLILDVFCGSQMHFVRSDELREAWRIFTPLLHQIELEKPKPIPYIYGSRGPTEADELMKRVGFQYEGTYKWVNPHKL
Chain of Nonstructural protein 1 (Q194T2 whole entry): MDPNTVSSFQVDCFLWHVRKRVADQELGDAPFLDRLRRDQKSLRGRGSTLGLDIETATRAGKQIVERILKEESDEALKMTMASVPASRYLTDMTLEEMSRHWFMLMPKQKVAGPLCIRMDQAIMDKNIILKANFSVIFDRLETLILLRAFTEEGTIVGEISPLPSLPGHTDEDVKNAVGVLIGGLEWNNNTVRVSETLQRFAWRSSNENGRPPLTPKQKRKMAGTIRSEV
Chain of DNA dC->dU-editing enzyme APOBEC-3G (Q9HC16 whole entry): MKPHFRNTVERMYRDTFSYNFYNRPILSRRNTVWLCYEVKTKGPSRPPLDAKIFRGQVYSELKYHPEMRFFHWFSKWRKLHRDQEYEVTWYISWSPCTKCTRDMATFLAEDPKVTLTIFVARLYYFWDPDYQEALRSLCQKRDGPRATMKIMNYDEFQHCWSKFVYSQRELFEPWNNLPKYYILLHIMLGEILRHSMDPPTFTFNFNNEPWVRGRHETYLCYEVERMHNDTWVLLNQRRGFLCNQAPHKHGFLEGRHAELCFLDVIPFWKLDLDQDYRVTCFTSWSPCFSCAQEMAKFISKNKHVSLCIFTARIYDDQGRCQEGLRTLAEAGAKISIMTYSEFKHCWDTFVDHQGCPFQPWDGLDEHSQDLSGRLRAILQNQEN
Chain of Paired box protein Pax-8 (Q06710 whole entry): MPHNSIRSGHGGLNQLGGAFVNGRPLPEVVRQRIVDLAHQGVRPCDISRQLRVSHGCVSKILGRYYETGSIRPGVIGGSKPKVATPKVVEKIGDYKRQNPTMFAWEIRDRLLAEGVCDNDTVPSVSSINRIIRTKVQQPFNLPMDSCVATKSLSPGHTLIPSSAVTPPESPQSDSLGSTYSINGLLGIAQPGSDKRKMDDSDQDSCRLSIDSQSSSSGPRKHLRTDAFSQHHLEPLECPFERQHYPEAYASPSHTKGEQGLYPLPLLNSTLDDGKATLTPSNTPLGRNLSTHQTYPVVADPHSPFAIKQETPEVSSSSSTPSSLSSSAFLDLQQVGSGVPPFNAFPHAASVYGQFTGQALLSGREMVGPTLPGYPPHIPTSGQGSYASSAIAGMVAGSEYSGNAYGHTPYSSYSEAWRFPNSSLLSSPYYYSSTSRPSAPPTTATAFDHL

In the case of `COc1ccc(Cn2c(-c3ccc(C)cc3)c[n+]3ccccc23)cc1`, the values for the AC50 (in assay [1]; in the assay on INS1) were 2.89 µM (active) and 4.52 µM (active), respectively.

Turning to `CCOc1ccccc1N(CC)C(=O)c1ccc2c(=O)n3c(nc2c1)CCCCC3`, the IC50 at Fatty acid synthase [2] was 3.88 µM (active); at Fatty acid synthase [3], 3.45 µM (active).

In the case of `C=CCSC(=S)NC1CCS(=O)(=O)C1` (configuration not stated), the 50% cytotoxic concentration (CC50) in assay [4] is 24.6 µM (active). Also, the AC50 in assay [1] is 20.7 µM (active).

Take `COC(=O)CCC(=O)Nc1sc(Cc2ccccc2)c(C)c1C(N)=O`: the values for the IC50 (in [5]; in assay [6]; in “cells [7]”) were > 80 µM (inactive), 31.1 µM (active) and 49 µM (active), respectively.

In the case of `COC(=O)[C@H](C)NC(=O)c1cc2c3ccccc3nc-2c[nH]1`, the IC50 was > 80 µM (inactive) in assay [5] and 25.6 µM (active) in assay [6].

For `Cc1ccc(-c2c(C(=O)N(C)Cc3ccccc3)oc(=O)c3ccccc23)cc1`, the IC50 on Fatty acid synthase [2] is 11.6 µM (active); on Fatty acid synthase [3] it was 12.3 µM (active).

Consider `CC(C)c1nnc(NC(=O)c2cc3ccccc3o2)s1`, for which the IC50 in assay [5] was > 80 µM (inactive).

In the case of `O=C(NN=Cc1c(O)ccc2ccccc12)c1ccncc1`, the half-maximal inhibitory concentration (IC50) at Nonstructural protein 1 was 11.9 µM (active). Further, at Paired box protein Pax-8, the half-maximal activity concentration (AC50) was 1.17 µM (active).

For `O=C(COc1ccc(S(=O)(=O)N2CCCCC2)cc1)Nc1ccccc1F`, the concentration for half-maximal inhibition (IC50) at Fatty acid synthase [2] was 16 µM (active); at Fatty acid synthase [3], 17.2 µM (active).

For `Nc1ncnc2c1ncn2C1C(O)C=C(CO)C1O` (configuration not stated), in the assay with SN12K1, the GI50 was > 625 µM (inactive).

As to `COc1cccc2sc(N3CCN(C(=O)c4ccc([N+](=O)[O-])o4)CC3)nc12`, the EC50 in “cells [8]” and in the assay “cells [9]” was > 350 µM (not active) throughout. In addition, the CC50 in [10] is 36.5 µM (active); in assay [11] it was 18.9 µM (active). For the same compound, the half-maximal activity concentration (AC50) in assay [1] was 7.03 µM (active). The IC50 in “cells [7]” is < 0.1 µM (active).

Turning to `CC(=O)N(Cc1ccc(F)cc1)C1=C(NCc2ccccc2)C(=O)c2ccccc2C1=O`, the EC50 in [12] was 4.92 µM (inconclusive); in assay [13], 8.34 µM (active); in [14] it was > 120 µM (not active); in assay [15], 8.2 µM (active); in [16] it was 0.708 µM (active); in assay [17], 0.317 µM (active). Further, the 50% effective concentration (EC50) in assay [18] was 0.54 µM (active); in assay [19] it was 7.47 µM (active); in [20], 0.444 µM (active); at Protein RecA, 0.776 µM (active). Besides, on Nonstructural protein 1, the half-inhibitory concentration (IC50) is 35.3 µM (active). In addition, the concentration at half-maximal activity (AC50) in [21] was 5.17 µM (active).
